The values below come from ChEMBL document CHEMBL1130862, “Synthesis and acetylcholinesterase inhibitory activity of (+/-)-14-fluorohuperzine A” (Bioorg Med Chem Lett, 1998).

The target of the test is T1, Acetylcholinesterase (Rattus norvegicus, UniProt P37136).
T1 sequence (P37136 whole entry): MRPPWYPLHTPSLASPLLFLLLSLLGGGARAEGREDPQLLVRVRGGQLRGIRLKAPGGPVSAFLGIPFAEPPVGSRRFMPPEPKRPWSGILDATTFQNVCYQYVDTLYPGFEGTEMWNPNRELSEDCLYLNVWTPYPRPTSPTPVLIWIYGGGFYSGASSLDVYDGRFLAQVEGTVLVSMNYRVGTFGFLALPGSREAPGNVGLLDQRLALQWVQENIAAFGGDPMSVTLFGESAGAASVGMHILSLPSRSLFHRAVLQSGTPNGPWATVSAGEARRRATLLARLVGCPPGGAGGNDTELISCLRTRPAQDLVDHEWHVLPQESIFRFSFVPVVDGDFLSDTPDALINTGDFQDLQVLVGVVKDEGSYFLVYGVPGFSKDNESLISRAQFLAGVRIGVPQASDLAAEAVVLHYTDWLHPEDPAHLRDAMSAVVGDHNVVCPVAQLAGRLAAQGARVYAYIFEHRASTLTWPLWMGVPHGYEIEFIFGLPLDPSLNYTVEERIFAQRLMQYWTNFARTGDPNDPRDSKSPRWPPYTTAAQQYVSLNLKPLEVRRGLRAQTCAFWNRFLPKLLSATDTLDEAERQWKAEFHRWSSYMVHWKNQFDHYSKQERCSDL
The experiment in a line: In vitro inhibitory activity against Acetylcholinesterase (AChE) using rat brain hippocampal crude homogenates. In kind it is tissue-based, Hippocampus.

Broadly, the IC50 is the concentration that inhibits the measured activity by half. Lower therefore signals higher potency. `CC1=CC2Cc3nc(O)ccc3C(N)(C1)/C2=C/CF` (stereo unspecified) had an IC50 of 10 µM.
